Calls of active or inactive are those of the source. The rule behind the calls is not given here.
Legend:
MRC5 = experiment: Antiproliferative activity against human MRC5 cells by SRB assay; assay type: cell-based
HeLa = experiment: Antiproliferative activity against human HeLa cells by SRB assay; assay type: functional, cell-based
MDA-MB-468 = experiment: Antiproliferative activity against human MDA-MB-468 cells by SRB assay; assay type: functional, cell-based
SK-OV-3 = experiment: Antiproliferative activity against human SKOV3 cells by SRB assay; assay type: functional, cell-based
HCT-116 [1] = experiment: Antiproliferative activity against human HCT116 cells by SRB assay; assay type: functional, cell-based
A549 = experiment: Antiproliferative activity against human A549 cells by SRB assay; assay type: functional, cell-based
Homo sapiens = species: Homo sapiens; experiment: Displacement of colchicine from tubulin (unknown origin) at 0.1 to 10 uM after 1 hr by fluorescence assay
HCT-116 [2] = experiment: Cell cycle arrest in human HCT116 cells assessed as accumulation at S phase at 125 nM after 48 hrs by […]propidium iodide staining based flow cytometry (reference value: 8.93%); assay type: functional
HCT-116 [3] = experiment: Induction of microtubule disruption in human HCT116 cells assessed as change in microtubule architecture at 0.5 uM after 24 hrs by DAPI staining based confocal microscopic method; assay type: functional, cell-based
HCT-116 [4] = experiment: Cell cycle arrest in human HCT116 cells assessed as accumulation at G1 phase at 500 nM after 48 hrs by […]propidium iodide staining based flow cytometry (reference value: 89.45%); assay type: functional
HCT-116 [5] = experiment: Induction of apoptosis in human HCT116 cells assessed as viable cells at 0.5 uM after 24 hrs by annexin-V FITC/propidium iodide staining based flow cytometry (reference value: 97.93%); assay type: functional; settings: HCT-116, 24 h, read-out: Activity
HCT-116 [6] = experiment: Cell cycle arrest in human HCT116 cells assessed as accumulation at G2/M phase at 500 nM after 48 hrs by […]propidium iodide staining based flow cytometry (reference value: 1.62%); assay type: functional
HCT-116 [7] = experiment: Induction of apoptosis in human HCT116 cells assessed as late apoptotic cells at 0.5 uM after 24 hrs by annexin-V FITC/propidium iodide staining based flow cytometry (reference value: 0.96%); assay type: functional
HCT-116 [8] = experiment: Induction of apoptosis in human HCT116 cells assessed as early apoptotic cells at 0.5 uM after 24 hrs by annexin-V FITC/propidium iodide staining based flow cytometry (reference value: 1.08%); assay type: functional
HCT-116 [9] = experiment: Cell cycle arrest in human HCT116 cells assessed as accumulation at S phase at 500 nM after 48 hrs by […]propidium iodide staining based flow cytometry (reference value: 8.93%); assay type: functional
Bos taurus = species: Bos taurus; experiment: Inhibition of bovine tubulin polymerization at 125 to 725 nM measured every 60 secs intervals for 60 mins in presence of GTP by fluorescence assay
HCT-116 [10] = experiment: Induction of apoptosis in human HCT116 cells assessed as necrotic cells at 0.5 uM after 24 hrs by annexin-V FITC/propidium iodide staining based flow cytometry (reference value: 0.03%); assay type: functional
HCT-116 [11] = experiment: Induction of Cyclin B1 accumulation in human HCT116 cells at 0.06 to 1 uM after 24 hrs by Western blot method; assay type: functional, cell-based
HCT-116 [12] = experiment: Cell cycle arrest in human HCT116 cells assessed as accumulation at G1 phase at 125 nM after 48 hrs by […]propidium iodide staining based flow cytometry (reference value: 89.45%); assay type: functional
HCT-116 [13] = experiment: Cell cycle arrest in human HCT116 cells assessed as accumulation at G2/M phase at 125 nM after 48 hrs by […]propidium iodide staining based flow cytometry (reference value: 1.62%); assay type: functional

IC50 (HeLa) | IC50 (MDA-MB-468) | IC50 (SK-OV-3) | IC50 (HCT-116 [1]) | IC50 (A549) | SMILES | IC50 (MRC5) | further results
32.5 µM | 34.7 µM | 12.8 µM | 4.9 µM | 20.5 µM | COc1ccc(NC(=O)c2cc(-c3ccccc3)nc3ccccc23)cc1 | 40.5 µM | –
45.8 µM | 42.8 µM | 36.8 µM | 48.3 µM | > 50 µM | CSc1cccc(NC(=O)c2cc(-c3ccccc3)nc3ccccc23)c1 | > 50 µM | –
> 50 µM | > 50 µM | > 50 µM | 47.3 µM | > 50 µM | COc1ccc(NC(=O)c2cc(-c3ccc(C(F)(F)F)cc3)nc3ccccc23)c(C)c1 | > 50 µM | –
10.4 µM | 32.1 µM | 15.3 µM | 14.6 µM | 23.6 µM | COc1ccc(NC(=O)c2cc(-c3cccc(C)c3)nc3ccccc23)c(C)c1 | > 50 µM | –
16.4 µM | 20.1 µM | 8.4 µM | 7.8 µM | 23.7 µM | COc1ccc(NC(=O)c2cc(-c3ccccc3)nc3ccccc23)c(C)c1 | > 50 µM | –
> 50 µM | > 50 µM | 29.7 µM | 34.2 µM | > 50 µM | COc1ccc(NC(=O)c2cc(-c3ccccc3)nc3ccc(F)cc23)cc1 | > 50 µM | –
25.2 µM | 35.2 µM | 6.3 µM | 3.7 µM | 18.5 µM | COc1ccc(NC(=O)c2cc(-c3ccc(C)cc3)nc3ccccc23)cc1 | 47.8 µM | –
40.2 µM | > 50 µM | 20.3 µM | 24.8 µM | > 50 µM | COc1ccc(NC(=O)c2cc(-c3ccccc3)nc3ccc(Cl)cc23)cc1 | > 50 µM | –
> 50 µM | > 50 µM | 34.2 µM | 27.4 µM | > 50 µM | COc1ccc(NC(=O)c2cc(-c3ccccc3)nc3ccc(Cl)cc23)c(C)c1 | > 50 µM | –
> 50 µM | > 50 µM | 37.6 µM | 39.5 µM | > 50 µM | COc1ccc(NC(=O)c2c3c(nc4ccc(Cl)cc24)-c2ccccc2CC3)cc1 | > 50 µM | –
> 50 µM | > 50 µM | 43.4 µM | > 50 µM | 46.3 µM | COc1ccc(NC(=O)c2cc(-c3ccc4c(c3)OCO4)nc3ccccc23)cc1 | > 50 µM | –
> 50 µM | 41.6 µM | 42.2 µM | 43.6 µM | 45.7 µM | COc1ccc(NC(=O)c2cc(-c3ccccc3C)nc3ccccc23)c(C)c1 | > 50 µM | –
> 50 µM | > 50 µM | 24.1 µM | 36.4 µM | > 50 µM | COc1cc(NC(=O)c2cc(-c3ccccc3)nc3ccc(Cl)cc23)cc(OC)c1OC | > 50 µM | –
9.5 µM | 17.4 µM | 4.2 µM | 1.7 µM | 11.6 µM | COc1ccc(NC(=O)c2cc(-c3ccc(C)cc3)nc3ccccc23)c(C)c1 | 48.1 µM | –
42.6 µM | 42.8 µM | 36.3 µM | > 50 µM | > 50 µM | COc1cc(OC)c(NC(=O)c2cc(-c3ccccc3)nc3ccccc23)cc1Cl | > 50 µM | –
30.2 µM | > 50 µM | 12.4 µM | 9.4 µM | 30.5 µM | COc1ccc(NC(=O)c2cc(-c3cccc(C)c3)nc3ccccc23)cc1 | > 50 µM | –
> 50 µM | > 50 µM | 45.8 µM | 49.1 µM | > 50 µM | CCOc1ccc(NC(=O)c2cc(-c3ccccc3)nc3ccccc23)cc1 | > 50 µM | –
40.5 µM | 34.7 µM | 17.4 µM | 12.9 µM | 32.5 µM | COc1cccc(NC(=O)c2cc(-c3ccccc3)nc3ccccc23)c1 | 43.8 µM | –
42.8 µM | > 50 µM | 36.7 µM | 31.4 µM | > 50 µM | COc1ccc(NC(=O)c2cc(-c3ccccc3C)nc3ccccc23)cc1 | > 50 µM | –
16.4 µM | 32.4 µM | 8.3 µM | 10.4 µM | 29.7 µM | COc1ccc(NC(=O)c2cc(-c3ccc(C)cc3)nc3ccc(C)cc23)cc1 | > 50 µM | –

The remaining lines, values behind:

SMILES | IC50 (HeLa) | IC50 (MDA-MB-468) | IC50 (SK-OV-3) | IC50 (HCT-116 [1]) | IC50 (A549) | IC50 (MRC5) | further results
COc1cc(NC(=O)c2cc(-c3ccc(C)cc3)nc3ccc(C)cc23)cc(OC)c1OC | 13.5 µM | 37.1 µM | 6.2 µM | 5.2 µM | 20.3 µM | 42.7 µM | –
CC[C@]1(O)C[C@@H]2CN(CCc3c([nH]c4ccccc34)[C@@](C(=O)OC)(c3cc4c(cc3OC)N(C)[C@H]3[C@@](O)(C(=O)OC)[C@H](OC(C)=O)[C@]5(CC)C=CCN6CC[C@]43[C@@H]65)C2)C1 | – | – | – | – | – | – | inhibition (Homo sapiens): inactive
COC(=O)c1sccc1NC(=O)c1cc(-c2ccccc2)nc2ccccc12 | 34.5 µM | 36.8 µM | 20.3 µM | 22.6 µM | 48.7 µM | 46.3 µM | –
COc1ccc(NC(=O)c2c3c(nc4ccc(Cl)cc24)-c2ccccc2CC3)c(C)c1 | > 50 µM | > 50 µM | 32.5 µM | > 50 µM | > 50 µM | > 50 µM | –
C=CCNC(=S)NC(=O)c1cc(-c2ccccc2)nc2ccccc12 | > 50 µM | > 50 µM | > 50 µM | > 50 µM | > 50 µM | > 50 µM | –
COc1cc(NC(=O)c2cc(-c3cccc(C)c3)nc3ccccc23)cc(OC)c1OC | 5.3 µM | 32.7 µM | 10.6 µM | 11.6 µM | 17.8 µM | 42.3 µM | –
COc1cc2c(c(OC)c1OC)-c1ccc(OC)c(=O)cc1[C@@H](NC(C)=O)CC2 [COLCHICINE] | 0.5 µM | 0.06 µM | 0.05 µM | 0.01 µM | 0.02 µM | 0.09 µM | –
COc1ccc(NC(=O)c2cc(-c3ccc(C)cc3)nc3ccc(C)cc23)c(C)c1 | 20.4 µM | 46.1 µM | 12.3 µM | 11.9 µM | 30.1 µM | > 50 µM | –
O=C(NC(Cc1ccccc1)C(=O)OCc1ccccc1)c1cc(-c2ccccc2)nc2ccccc12 (configuration not stated) | > 50 µM | > 50 µM | > 50 µM | 36.1 µM | > 50 µM | > 50 µM | –
COc1cc(NC(=O)c2cc(-c3ccc(C)cc3)nc3ccccc23)cc(OC)c1OC | 1.6 µM | 10.8 µM | 0.5 µM | 0.2 µM | 5.7 µM | 31.9 µM | Activity (HCT-116 [2]): 5.21%; Activity (HCT-116 [3]): Active; Activity (HCT-116 [4]): 4.93%; inhibition (Homo sapiens): Active; viability at 0.5 µM (HCT-116 [5]): 15.2%; Activity (HCT-116 [6]): 87.2%; Activity (HCT-116 [7]): 39.47%; Activity (HCT-116 [8]): 45.26%; Activity (HCT-116 [9]): 7.87%; inhibition (Bos taurus): Active; Activity (HCT-116 [10]): 0.04%; Activity (HCT-116 [11]): Active; Activity (HCT-116 [12]): 46.62%; Activity (HCT-116 [13]): 48.17%
Cc1cc(NC(=O)c2cc(-c3ccccc3)nc3ccccc23)no1 | > 50 µM | 46.2 µM | 36.6 µM | 25.8 µM | 37.9 µM | > 50 µM | –
COC(=O)C1=C(NC(=O)c2cc(-c3ccccc3)nc3ccccc23)NC=CN1 | 36.8 µM | > 50 µM | 38.9 µM | 29.5 µM | > 50 µM | > 50 µM | –
COc1cc(NC(=O)c2cc(-c3ccccc3)nc3ccccc23)cc(OC)c1OC | 12.7 µM | 18.9 µM | 5.4 µM | 2.7 µM | 17.9 µM | 38.8 µM | –

— ChEMBL document CHEMBL4043270, “Design, synthesis and biological evaluation of 2-phenylquinoline-4-carboxamide derivatives as a new class of tubulin polymerization inhibitors” (Bioorg Med Chem, 2017)
